Read-outs that look alike come from different tables or passages of the source.

The values that follow come from patent US11759461B2, “Small molecule inhibitors of cancer stem cells and mesenchymal cancer types” (The Scripps Research Institute, priority 2017, dated 2023).

Assay [1] relates to FOXC2-expressing HMLER cells. The experiment in a line: Cell Titer Glo viability of FOXC2-HMLER cells (high throughput screen and 10-point response). It counts as cell-based. The note with it: Homo sapiens. In short, it runs like this: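 Viability after 72 h compound exposure was measured as Cell Titer Glo luminescence. FOXC2-HMLER and parental HMLER cells, 1,000 per well in MEGM medium, were dosed 1 h after plating; screening concentration was 2 μM.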
In general terms: ATP-based viability assays read luminescence as a measure of living cells.

Assay [2] deals with T1, VIM (Homo sapiens, UniProt P08670).
T1 construct: endogenous in cells; host or cells: FOXC2-HMLER
In words: Immunofluorescent analysis of VIM filamentous architecture in HUVECs. It counts as cell-based. The note with it: one-hour treatment.

The test system of assay [3] is STS cell lines (HT 1080, SW684, RD, GCT, SW872, SW982). The experiment in a line: Anti-proliferative activity against soft tissue sarcoma cell line panel. It is filed as cell-based. The text has this: The propagation conditions and generation of FOXC2-HMLER, HMLER, SNAIL-HMLER, SNAIL-HMLE, and SUM159 cells have been described previously (Mani (2008)). MCF-7, HepG2, HCT116, and MDA-MB-231 cells were from ATCC and maintained in DMEM medium (Corning) supplemented with 10% FBS (Corning) with Anti-anti (Gibco). The soft tissue sarcoma cell line panel was purchased from ATCC (TCP-1019) and maintained in the recommended medium for each cell type. HUVEC cells (pooled donor) were maintained in EBM-2 medium (both from Lonza Walkersville). Primary human lung fibroblasts were maintained in Fibroblast Medium (both from Sciencell Research Laboratories). For cell growth experiments, HLFs were grown in DMEM supplemented with 2% FBS and Anti-anti. For all experiments, primary human cells were used at a passage no greater than 4.
For high throughput screening, FOXC2-HMLER and HMLER cells were plated at 10^3 cells per well in white 384-well plates in 50 μL of MEGM medium (Lonza). Cells were allowed to attach for one hour before compound was transferred to each well as a DMSO solution using a 100 nL pintool head affixed to a PerkinElmer FX instrument. After 72-hour incubation, 30 μL of a Cell Titer Glo solution (diluted 1:6 in water, Promega) was dispensed into each well and luminance values were recorded using an Envision plate reader. […] Selected hit compounds were reordered from ChemDiv and tested for selective toxicity in 10-point response assays as above. All other miniaturized, selective viability experiments were performed as above using the indicated growth medium.
The anti-proliferative activity of Compound 1 was assessed against a selection of soft tissue sarcomas (STS), which collectively refers to a broad grouping of over 50 subtypes of connective tissue derived cancers for which targeted therapies are lacking (Zambo (2014)). […]
A panel of 6 STS cell lines were evaluated, which cell lines included the histological subtypes of fibrosarcoma (HT 1080, SW684), rhabdomyosarcoma (RD), fibrous histiocytoma (GCT), liposarcoma (SW872), and synovial sarcoma (SW982). […]

Assay [4] concerns FOXC2-HMLER cells. In words: Confocal imaging of thymidine synced FOXC2-HMLER cells at metaphase. It counts as cell-based, human. An excerpt: Because Compound 1 induces a hyper-phosphorylated VIM phenotype, we sought to determine if Compound 1's engagement of VIM might interfere at an alternative stage of mitosis. We therefore performed time course confocal imaging studies of Compound 1 treated FOXC2-HMLER cells after their release from thymidine blocking-based cell cycle synchronization.
Compound 1 treatment also disrupted the ability of β-tubulin to faithfully form the fine spindle microtubules of the mitotic spindle, instead resulting in a compressed phenotype with radiating projections connecting unaligned chromosomes. To assess the uniqueness of this phenotype, we evaluated the metaphase phenotypes of other chemical inhibitors which have shown to alter mitotic progression. These included inhibitors of centromere-associated protein E (CENP-E, also called kinesin-7, GSK92395), kinesin spindle protein (KSP, also called Eg5, Ispinesib), polo like kinases (PLK1/2/3, BI2536), and aurora kinases (AURKA/B/C, VX-680).

T1 sequence (P08670 whole entry): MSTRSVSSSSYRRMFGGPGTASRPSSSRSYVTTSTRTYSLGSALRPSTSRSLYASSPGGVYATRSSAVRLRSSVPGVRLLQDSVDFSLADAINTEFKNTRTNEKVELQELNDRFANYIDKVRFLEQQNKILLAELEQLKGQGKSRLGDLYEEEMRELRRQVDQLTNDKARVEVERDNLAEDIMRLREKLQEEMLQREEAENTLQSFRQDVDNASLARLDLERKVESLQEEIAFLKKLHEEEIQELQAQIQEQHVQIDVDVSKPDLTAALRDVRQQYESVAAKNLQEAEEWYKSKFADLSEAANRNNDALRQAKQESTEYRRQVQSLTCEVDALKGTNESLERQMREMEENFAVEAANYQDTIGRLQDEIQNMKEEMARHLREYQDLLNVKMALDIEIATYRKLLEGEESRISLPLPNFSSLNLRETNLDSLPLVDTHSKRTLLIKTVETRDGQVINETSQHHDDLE

Consider `Clc1cccc(N2CCN(c3cnnc4c(Cl)cccc34)CC2)c1` [Compound 1, 8-chloro-4-(4-(3-chlorophenyl)piperazin-1-yl)cinnoline], for which the IC50 in assay [1] (72-hour incubation, read-out: FOXC2-HMLER IC50) is 234 nM; in assay [1] (scored relative to parent compound 1, 72 hours, read-out: Activity Score, inhibition of FOXC2-expressing HMLER cells by Formula I compounds), < 1000 nM; in assay [3] (Homo sapiens, SW872 liposarcoma cell line, read-out: IC50, SW872 cells), 440 nM; in assay [3] (panel of 6 STS cell lines, read-out: IC50 values, growth of all STS cell lines) it was 440 to 1310 nM. In assay [2], the “VIM filamentous architecture in HUVECs” value is listed as “promoted the destruction of fine VIM-containing filamentous structures”. For the same molecule, in assay [3] (all STS cell lines, 24-hour treatment), the “multinucleation phenotype in STS cell lines” value is on record as “robust multinucleation phenotype”. In assay [4], the “VIM filamentous structure at metaphase” value is on record as “collapsed VIM filamentous structure”. For the same molecule, in assay [4], the “chromosome alignment to the metaphase plate” value is given as “inhibited the ability of chromosomes to align to the metaphase plate”.
